Laboratory results published in ChEMBL document CHEMBL1142160, “Overexpression and initial characterization of the chromosomal aminoglycoside 3'-O-phosphotransferase APH(3')-IIb from Pseudomonas aeruginosa” (2007).
In brackets after ≈: the same amount, converted by molar mass.

Experiments:
Format in all cases: functional
Escherichia coli [1] = test: Antibacterial activity against Escherichia coli BL21(DE3)
Pseudomonas aeruginosa = test: Antibacterial activity against Pseudomonas aeruginosa ATCC 27853
Escherichia coli [2] = test: Antibacterial activity against Escherichia coli BL21(DE3) expressing Pseudomonas aeruginosa APH(3')-2b

| Structure (SMILES) | MIC (Escherichia coli [1]) [µg/mL] | MIC (Pseudomonas aeruginosa) [µg/mL] | MIC (Escherichia coli [2]) [µg/mL] |
| --- | --- | --- | --- |
| NC[C@@H]1O[C@@H](O[C@H]2[C@H](O)[C@@H](O[C@H]3O[C@H](CO)[C@@H](O)[C@H](N)[C@H]3O)[C@H](N)C[C@@H]2N)[C@@H](O)[C@H](O)[C@H]1O [KANAMYCIN A] | 12 (≈ 24.8 µM) | 256 (≈ 528 µM) | 768 (≈ 1590 µM) |
| NC[C@H]1O[C@H](O[C@H]2[C@H](O)[C@@H](O)[C@H](N)C[C@@H]2N)[C@H](N)[C@@H](O)[C@@H]1O [NEAMINE] | 96 (≈ 298 µM) | 512 (≈ 1590 µM) | 1540 (≈ 4760 µM) |
| NC[C@@H]1O[C@H](O[C@H]2[C@@H](O)[C@H](O[C@@H]3[C@@H](O)[C@H](N)C[C@H](N)[C@H]3O[C@H]3O[C@H](CN)[C@@H](O)[C@H](O)[C@H]3N)O[C@@H]2CO)[C@H](N)[C@@H](O)[C@@H]1O [FRAMYCETIN] | 12 (≈ 19.5 µM) | 128 (≈ 208 µM) | 96 (≈ 156 µM) |
| NCC[C@H](O)C(=O)N[C@@H]1C[C@H](N)[C@@H](O[C@H]2O[C@H](CN)[C@@H](O)[C@H](O)[C@H]2O)[C@H](O)[C@H]1O[C@H]1O[C@H](CO)[C@@H](O)[C@H](N)[C@H]1O [AMIKACIN] | 12 (≈ 20.5 µM) | 3 (≈ 5.12 µM) | 12 (≈ 20.5 µM) |
| NC[C@H]1O[C@H](O[C@H]2[C@H](O)[C@@H](O[C@H]3O[C@H](CO)[C@@H](O)[C@H](N)[C@H]3O)[C@H](N)C[C@@H]2N)[C@H](N)C[C@@H]1O [TOBRAMYCIN] | 6 (≈ 12.8 µM) | 1 (≈ 2.14 µM) | 6 (≈ 12.8 µM) |
| NC[C@H]1O[C@H](O[C@H]2[C@H](O[C@@H]3O[C@H](CO)[C@@H](O)[C@H]3O)[C@@H](O)[C@H](N)C[C@@H]2N)[C@H](N)[C@@H](O)[C@@H]1O [RIBOSTAMYCIN] | 12 (≈ 26.4 µM) | 384 (≈ 845 µM) | 768 (≈ 1690 µM) |
